Measured values reported in patent US11292788B2, “IL-17 and IFN-gamma inhibition for the treatment of autoimmune diseases and chronic inflammation” (Immunic AG, priority 2017, dated 2022).

Legend:
Type in all cases: cell-based
INF-γ = assay: Cytokine assay: INF-γ production by human PBMC stimulated with PHA; settings: Homo sapiens, PBMC, IC50 class, read-out: IFN-gamma Inhib.
Experimental: (§1) Cytokine Assay: Analysis of Proliferation of and Cytokine Production by Human PBMC Stimulated with PHA
(§2) Peripheral blood mononuclear cells (PBMC) from healthy human donors were purified using Accuspin™ System-Histopaque-1077 (Sigma) according to the protocol recommended by the manufacturer. Purified PBMC were then washed twice with phosphate-buffered saline (PBS) and resuspended in RPMI1640 culture medium supplemented with 10% dialyzed heat inactivated fetal calf serum, 1.5 mM L-glutamine, 100 U penicillin/ml, and […] (all from PAN Biotech, Aidenbach, Germany). For stimulation, PBMC were seeded at 1×10^5 cells/well, activated with 2 μg/ml phytohaemagglutinin (PHA, Sigma) and incubated with the test compounds for 48 hours. IL-17A, IL-17F and INF-γ were then determined in the culture supernatant using a Luminex BioPlex system, following the manufacturer's instructions (BioRad, Munich, Germany). For screening, compounds were used at 10, 1, 0.1 and 0.01 μM. To determine the IC50, compounds were titrated semilogarithmically.
(§3) Cytokines were determined in the aforementioned culture supernatant using the following methods: IL-17A was measured using the human homodimer IL-17A ELISA Ready Set Go Kit from eBioscience (Frankfurt, Germany); IL-17F using the human IL-17F ELI-Pair from Hölzel DiagnosticaGmBH (Köln, Germany); and IFN-γ using the OptEIA human IFN-g ELISA from BD Bioscience (Heidelberg, Germany), all following the manufacturer's instructions.

IL-17F = assay: Cytokine assay: IL-17F production by human PBMC stimulated with PHA; settings: Homo sapiens, PBMC, IC50 class, read-out: IL-17F Inhib.
Experimental: as §1, §2, §3

IL-17A = assay: Cytokine assay: IL-17A production by human PBMC stimulated with PHA; settings: Homo sapiens, PBMC, IC50 class, read-out: IL-17A Inhib.
Experimental: as §1, §2, §3

SMILES	IC50 (INF-γ) [nM]	IC50 (IL-17F) [nM]	IC50 (IL-17A) [nM]
COc1ccccc1-c1noc(-c2cnn(CC(C)(C)O)c2C(F)(F)F)c1-c1ncccn1 [Example 114, 1-{4-[3-(2-methoxyphenyl)-4-(pyrimidin-2-yl)-1,2-oxazol-5-yl]-5-(trifluoromethyl)-1H-pyrazol-1-yl}-2-methylpropan-2-ol]	500 to 5000	≥ 5000	≥ 5000
COc1ccccc1-c1noc(-c2cnn(C[C@@H](C)O)c2C(F)(F)F)c1-c1ccncn1 [Example 115, (2R)-1-{4-[3-(2-methoxyphenyl)-4-(pyrimidin-4-yl)-1,2-oxazol-5-yl]-5-(trifluoromethyl)-1H-pyrazol-1-yl}propan-2-ol]	50 to 500	500 to 5000	500 to 5000
COc1ccccc1-c1noc(-c2cnn(CC(C)(C)O)c2C(F)(F)F)c1-c1ccncn1 [Example 116, 1-{4-[3-(2-methoxyphenyl)-4-(pyrimidin-4-yl)-1,2-oxazol-5-yl]-5-(trifluoromethyl)-1H-pyrazol-1-yl}-2-methylpropan-2-ol]	500 to 5000	≥ 5000	≥ 5000
COc1cccc(-c2noc(-c3cnn(C[C@@H](C)O)c3C(F)(F)F)c2-c2ncccn2)c1Cl [Example 117, (2R)-1-{4-[3-(2-chloro-3-methoxyphenyl)-4-(pyrimidin-2-yl)-1,2-oxazol-5-yl]-5-(trifluoromethyl)-1H-pyrazol-1-yl}propan-2-ol]	50 to 500	500 to 5000	500 to 5000
COc1cccc(-c2noc(-c3cnn(C[C@@H](C)O)c3C(F)(F)F)c2-c2ccncn2)c1Cl [Example 119, (2R)-1-{4-[3-(2-chloro-3-methoxyphenyl)-4-(pyrimidin-4-yl)-1,2-oxazol-5-yl]-5-(trifluoromethyl)-1H-pyrazol-1-yl}propan-2-ol]	50 to 500	500 to 5000	500 to 5000
COc1cccc(-c2noc(-c3cnn(CC(C)(C)O)c3C(F)(F)F)c2-c2ccncn2)c1Cl [Example 120, 1-{4-[3-(2-chloro-3-methoxyphenyl)-4-(pyrimidin-4-yl)-1,2-oxazol-5-yl]-5-(trifluoromethyl)-1H-pyrazol-1-yl}-2-methylpropan-2-ol]	500 to 5000	≥ 5000	500 to 5000
CC(C)(O)CCn1ncc(-c2onc(-c3ccccc3Cl)c2-c2ncccn2)c1C(F)(F)F [Example 122, 4-{4-[3-(2-chlorophenyl)-4-(pyrimidin-2-yl)-1,2-oxazol-5-yl]-5-(trifluoromethyl)-1H-pyrazol-1-yl}-2-methylbutan-2-ol]	< 50	< 50	< 50
CC(C)(O)CCn1ncc(-c2onc(-c3cccc(O)c3Cl)c2-c2ncccn2)c1C(F)(F)F [Example 129, 2-chloro-3-{5-[1-(3-hydroxy-3-methylbutyl)-5-(trifluoromethyl)-1H-pyrazol-4-yl]-4-(pyrimidin-2-yl)-1,2-oxazol-3-yl}phenol]	500 to 5000	50 to 500	50 to 500
CN1CCN(CCOc2cccc(-c3noc(-c4cnn(CCC(C)(C)O)c4C(F)(F)F)c3-c3ncccn3)c2Cl)CC1 [Example 136, 4-[4-(3-{2-chloro-3-[2-(4-methylpiperazin-1-yl)ethoxy]phenyl}-4-(pyrimidin-2-yl)-1,2-oxazol-5-yl)-5-(trifluoromethyl)-1H-pyrazol-1-yl]-2-methylbutan-2-ol]	50 to 500	50 to 500	50 to 500
CN(C)CCCOc1cccc(-c2noc(-c3cnn(CCC(C)(C)O)c3C(F)(F)F)c2-c2ncccn2)c1Cl [Example 140, 4-[4-(3-{2-chloro-3-[3-(dimethylamino)propoxy]phenyl}-4-(pyrimidin-2-yl)-1,2-oxazol-5-yl)-5-(trifluoromethyl)-1H-pyrazol-1-yl]-2-methylbutan-2-ol]	50 to 500	50 to 500	50 to 500
CC(C)(O)CCn1ncc(-c2onc(-c3cccc(OCCCN4CCCC4)c3Cl)c2-c2ncccn2)c1C(F)(F)F [Example 142, 4-[4-(3-{2-chloro-3-[3-(pyrrolidin-1-yl)propoxy]phenyl}-4-(pyrimidin-2-yl)-1,2-oxazol-5-yl)-5-(trifluoromethyl)-1H-pyrazol-1-yl]-2-methylbutan-2-ol]	50 to 500	50 to 500	50 to 500
CCN(CC)CCCOc1cccc(-c2noc(-c3cnn(CCC(C)(C)O)c3C(F)(F)F)c2-c2ncccn2)c1Cl [Example 143, 4-[4-(3-{2-chloro-3-[3-(diethylamino)propoxy]phenyl}-4-(pyrimidin-2-yl)-1,2-oxazol-5-yl)-5-(trifluoromethyl)-1H-pyrazol-1-yl]-2-methylbutan-2-ol]	< 50	< 50	< 50
COC(=O)c1c(-c2cccc(OCCN(C)C)c2Cl)noc1-c1cnn(C[C@H](C)O)c1C(F)(F)F [Example 149, methyl 3-{2-chloro-3-[2-(dimethylamino)ethoxy]phenyl}-5-{1-[(2S)-2-hydroxypropyl]-5-(trifluoromethyl)-1H-pyrazol-4-yl}-1,2-oxazole-4-carboxylate]	50 to 500	500 to 5000	50 to 500
C[C@@H](O)Cn1ncc(-c2onc(-c3cccc(C(=O)N4CCOCC4)c3Cl)c2-c2ccncn2)c1C(F)(F)F [Example 154, (R)-(2-chloro-3-(5-(1-(2-hydroxypropyl)-5-(trifluoromethyl)-1H-pyrazol-4-yl)-4-(pyrimidin-4-yl)isoxazol-3-yl)phenyl) (morpholino)methanone]	50 to 500	≥ 5000	500 to 5000
C[C@@H](O)Cn1ncc(-c2onc(-c3cccc(C(=O)NC4CCC4)c3Cl)c2-c2ccncn2)c1C(F)(F)F [Example 155, (R)-2-chloro-N-cyclobutyl-3-(5-(1-(2-hydroxypropyl)-5-(trifluoromethyl)-1H-pyrazol-4-yl)-4-(pyrimidin-4-yl)isoxazol-3-yl)benzamide]	50 to 500	50 to 500	50 to 500
CCNC(=O)c1cccc(-c2noc(-c3cnn(C[C@@H](C)O)c3C(F)(F)F)c2-c2ccncn2)c1Cl [Example 156, (R)-2-chloro-N-ethyl-3-(5-(1-(2-hydroxypropyl)-5-(trifluoromethyl)-1H-pyrazol-4-yl)-4-(pyrimidin-4-yl)isoxazol-3-yl)benzamide]	500 to 5000	≥ 5000	≥ 5000
CC(C)NC(=O)c1cccc(-c2noc(-c3cnn(C[C@@H](C)O)c3C(F)(F)F)c2-c2ccncn2)c1Cl [Example 157, (R)-2-chloro-3-(5-(1-(2-hydroxypropyl)-5-(trifluoromethyl)-1H-pyrazol-4-yl)-4-(pyrimidin-4-yl)isoxazol-3-yl)-N-isopropylbenzamide]	50 to 500	500 to 5000	500 to 5000
C[C@@H](O)Cn1ncc(-c2onc(-c3cccc(C(=O)N4CCC4)c3Cl)c2-c2ccncn2)c1C(F)(F)F [Example 158, (R)-(azetidin-1-yl)(2-chloro-3-(5-(1-(2-hydroxypropyl)-5-(trifluoromethyl)-1H-pyrazol-4-yl)-4-(pyrimidin-4-yl)isoxazol-3-yl)phenyl)methanone]	50 to 500	50 to 500	50 to 500
C[C@@H](O)Cn1ncc(-c2onc(-c3cccc(C(=O)NC4CC4)c3Cl)c2-c2ccncn2)c1C(F)(F)F [Example 159, (R)-2-chloro-N-cyclopropyl-3-(5-(1-(2-hydroxypropyl)-5-(trifluoromethyl)-1H-pyrazol-4-yl)-4-(pyrimidin-4-yl)isoxazol-3-yl)benzamide]	50 to 500	500 to 5000	500 to 5000
COc1c(C(=O)NC2CC2)cccc1-c1noc(-c2cnn(C[C@@H](C)O)c2C(F)(F)F)c1-c1ccncn1 [Example 161, (R)—N-cyclopropyl-3-(5-(1-(2-hydroxypropyl)-5-(trifluoromethyl)-1H-pyrazol-4-yl)-4-(pyrimidin-4-yl)isoxazol-3-yl)-2-methoxybenzamide]	500 to 5000	≥ 5000	≥ 5000
COc1c(C(=O)NC(C)C)cccc1-c1noc(-c2cnn(C[C@@H](C)O)c2C(F)(F)F)c1-c1ccncn1 [Example 162, (R)-3-(5-(1-(2-hydroxypropyl)-5-(trifluoromethyl)-1H-pyrazol-4-yl)-4-(pyrimidin-4-yl)isoxazol-3-yl)-N-isopropyl-2-methoxybenzamide]	50 to 500	≥ 5000	500 to 5000
COc1c(C(=O)N2CCC2)cccc1-c1noc(-c2cnn(C[C@@H](C)O)c2C(F)(F)F)c1-c1ccncn1 [Example 163, (R)-(azetidin-1-yl)(3-(5-(1-(2-hydroxypropyl)-5-(trifluoromethyl)-1H-pyrazol-4-yl)-4-(pyrimidin-4-yl)isoxazol-3-yl)-2-methoxyphenyl)methanone]	500 to 5000	≥ 5000	≥ 5000
